Test results as given in ChEMBL document CHEMBL5500423, “More than an Amide Bioisostere: Discovery of 1,2,4-Triazole-containing Pyrazolo[1,5-a]pyrimidine Host CSNK2 Inhibitors for Combatting β-Coronavirus Replication” (J Med Chem, 2024).
pIC50: −log10 of the molar value.

Columns and labels:
[1] = biological target: Casein kinase II subunit alpha' (Homo sapiens, UniProt P19784); test: Inhibition of NLuc-fused CSNK2A2 (unknown origin) expressed in HEK293 cells incubated for 2 hrs by NanoBRET assay; assay type: cell-based
Murine hepatitis virus = test: Antiviral activity against Murine hepatitis virus infected in mouse DBT cells preincubated with cells for 1 hrs followed by viral infection and measured after 10 hrs by luminometer; assay type: functional, organism-based; conditions: Murine coronavirus
[2] = Kinetic solubility of compound in PBS at pH 7.4 incubated for 24 hrs by HPLC analysis; assay type: physicochemical; conditions: buffer, pH 7.4, 24 h
[3] = Cytotoxicity against human A549-ACE2 cells assessed as cell viability at 1 uM incubated for 48 hrs by CellTiter-Glo2 assay relative to control; assay type: toxicity, cell-based; conditions: a549-ace2, 48 h

Chain of Casein kinase II subunit alpha' (P19784 whole entry, the tested form may be a part): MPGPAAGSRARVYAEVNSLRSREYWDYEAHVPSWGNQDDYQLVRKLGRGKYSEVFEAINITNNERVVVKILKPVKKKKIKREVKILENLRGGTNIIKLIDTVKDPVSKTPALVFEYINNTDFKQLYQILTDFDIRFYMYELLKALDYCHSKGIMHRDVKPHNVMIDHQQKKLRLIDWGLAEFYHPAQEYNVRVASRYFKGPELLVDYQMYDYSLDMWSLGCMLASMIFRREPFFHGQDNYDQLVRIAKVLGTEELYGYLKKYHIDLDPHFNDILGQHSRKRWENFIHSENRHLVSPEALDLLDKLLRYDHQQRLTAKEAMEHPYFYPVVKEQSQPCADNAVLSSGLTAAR

Structure (SMILES)	pIC50 [1]	pIC50 (Murine hepatitis virus)	Kinetic_solubility [2] [µg/mL]	Activity [3] [%]
N#Cc1cnn2c(NC3CC3)cc(Nc3ccc(N4CC[C@H](N)C4)c(-n4cnnc4)c3)nc12	6.80	6.40	49	85
N#Cc1cnn2c(NC3CC3)cc(Nc3cccc(-c4cnccn4)c3)nc12	< 5.00	< 5.00		
CC(=O)Nc1cccc(Nc2cc(NC3CC3)n3ncc(C#N)c3n2)c1		6.80	2.8	
Cn1cc(CNc2cc(Nc3cccc(-n4cnnc4)c3)nc3c(C#N)cnn23)cn1	< 5.00	< 5.00		
CNCCn1cnc(Nc2cc(Nc3cccc(-n4cnnc4)c3)nc3c(C#N)cnn23)c1	5.80	< 5.00	8.4	
N#Cc1cnn2c(NCCO)cc(Nc3cccc(-n4cnnc4)c3)nc12	< 5.00	< 5.00		
N#Cc1cnn2c(NC3CC3)cc(Nc3cc(-n4cnnc4)ccn3)nc12	8.00	6.80	1.2	96
Cc1nccn1-c1cccc(Nc2cc(NC3CC3)n3ncc(C#N)c3n2)c1	7.50	< 5.00		
N#Cc1cnn2c(NCC3CCOCC3)cc(Nc3cccc(-n4cnnc4)c3)nc12	< 5.00	< 5.00		
Cn1cnc(Nc2cc(Nc3cccc(-n4cnnc4)c3)nc3c(C#N)cnn23)c1	7.10	6.10	3.1	
CP(C)(=O)Cc1cccc(Nc2cc(NC3CC3)n3ncc(C#N)c3n2)c1	6.20	5.10		
CS(=N)(=O)Cc1cccc(Nc2cc(NC3CC3)n3ncc(C#N)c3n2)c1 (centres undefined)		≤ 5.00		
CN(CCN1CCCC1)c1ccc(Nc2cc(NC3CC3)n3ncc(C#N)c3n2)cc1-n1cnnc1	7.30	5.00		
N#Cc1cnn2c(NC3CC3)cc(Nc3cccc(-c4nn[nH]n4)c3)nc12	< 5.00	5.60		
N#Cc1cnn2c(NC3CC3)cc(Nc3cccc(-c4ncns4)c3)nc12	7.30	< 5.00		
CN(CCN1CCOCC1)c1ccc(Nc2cc(NC3CC3)n3ncc(C#N)c3n2)cc1-n1cnnc1	7.10	6.20	25	
N#Cc1cnn2c(NC3CC3)cc(Nc3cccc(-n4ccnn4)c3)nc12	6.30	5.50		

Structure (SMILES)	pIC50 [1]	pIC50 (Murine hepatitis virus)	Kinetic_solubility [2] [µg/mL]	Activity [3] [%]
N#Cc1cnn2c(NC3CC3)cc(Nc3ccc(N4CCOCC4)c(-n4cnnc4)c3)nc12		6.90	1.1	
N#Cc1cnn2c(Nc3ccn(CCN4CCOCC4)n3)cc(Nc3cccc(-n4cnnc4)c3)nc12	7.10	6.00	4	
CNCCn1ccc(Nc2cc(Nc3cccc(-n4cnnc4)c3)nc3c(C#N)cnn23)n1	7.10	< 5.00	2.1	
CNCCN(C)c1ccc(Nc2cc(NC3CC3)n3ncc(C#N)c3n2)cc1-n1cnnc1	6.90	6.00	16	
CN(C)CCn1cnc(Nc2cc(Nc3cccc(-n4cnnc4)c3)nc3c(C#N)cnn23)c1	6.30	< 5.00	30	
CCNCCN(C)c1ccc(Nc2cc(NC3CC3)n3ncc(C#N)c3n2)cc1-n1cnnc1	6.20	5.10		
N#Cc1cnn2c(NC3COC3)cc(Nc3cccc(-n4cnnc4)c3)nc12	6.60	< 5.00		
C[S+]([O-])Cc1cccc(Nc2cc(NC3CC3)n3ncc(C#N)c3n2)c1 (centres undefined)	7.40	6.40		
N#Cc1cnn2c(NC3CC3)cc(Nc3cccc(-c4nnco4)c3)nc12	6.20	5.00		
N#Cc1cnn2c(NC3CC3)cc(Nc3cccc(C(=O)O)c3)nc12	< 5.00	< 5.00		
CN(CCN)c1cc(F)c(Nc2cc(NC3CC3)n3ncc(C#N)c3n2)cc1-n1cnnc1	6.00	5.60	41	
N#Cc1cnn2c(NC3CC3)cc(Nc3cccc(CCO)c3)nc12	6.20	5.10		
N#Cc1cnn2c(NC3CC3)cc(Nc3cccc(-c4nccs4)c3)nc12	6.10	5.60		
Cc1nncn1-c1cccc(Nc2cc(NC3CC3)n3ncc(C#N)c3n2)c1	7.40	6.20		
N#Cc1cnn2c(Nc3cn(CCN4CCOCC4)cn3)cc(Nc3cccc(-n4cnnc4)c3)nc12	5.30	< 5.00	4.2	
CN[C@@H]1CCCN(c2ccc(Nc3cc(NC4CC4)n4ncc(C#N)c4n3)cc2-n2cnnc2)C1	6.10	5.50	63	
